As a reminder, the IC50 is the concentration that gives 50% inhibition.

The structures appear in SMILES notation. Structures can show the parent of a compound that is named as a salt.

The target in the assay is T1, recombinant human LTA4 hydrolase (rhLTA4H) (Homo sapiens, UniProt P09960).
T1 construct: made in house; host or cells: Spodoptera frugiperda (Sf-9) cells, recombinant baculovirus (pFastBac1)
T1 sequence (P09960 1-611): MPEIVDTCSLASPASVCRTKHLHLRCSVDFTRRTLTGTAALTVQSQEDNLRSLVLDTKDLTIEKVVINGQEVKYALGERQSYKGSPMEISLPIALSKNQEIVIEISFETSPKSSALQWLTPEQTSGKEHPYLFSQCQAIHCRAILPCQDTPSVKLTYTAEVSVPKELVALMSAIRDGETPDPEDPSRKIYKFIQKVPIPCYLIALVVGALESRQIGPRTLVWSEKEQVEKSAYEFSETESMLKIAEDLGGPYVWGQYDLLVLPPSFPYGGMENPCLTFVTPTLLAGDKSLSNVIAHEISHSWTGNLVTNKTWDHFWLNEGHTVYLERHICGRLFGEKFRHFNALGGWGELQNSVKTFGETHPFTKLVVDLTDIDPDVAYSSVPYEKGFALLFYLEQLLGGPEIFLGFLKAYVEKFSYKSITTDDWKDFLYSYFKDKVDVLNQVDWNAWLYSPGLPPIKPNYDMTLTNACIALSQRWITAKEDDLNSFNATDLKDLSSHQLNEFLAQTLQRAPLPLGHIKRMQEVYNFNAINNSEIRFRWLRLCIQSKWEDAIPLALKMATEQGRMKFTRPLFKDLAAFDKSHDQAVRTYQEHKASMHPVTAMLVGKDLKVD
As to the kind of experiment: Recombinant human LTA4 hydrolase assay for LTA4 hydrolase inhibitor activity. The following applies: rhLTA4H, LTA4 substrate, LTB4 by immunoassay; single determination or average; read-out: IC50. It is filed as biochemical. The procedure: Assay 1: Recombinant Human LTA4 Hydrolase Assay for LTA4 Hydrolase Inhibitor Activity
Compounds of the present invention were tested for LTA4 hydrolase inhibitor activity against recombinant human LTA4 hydrolase (rhLTA4H). Vectors were prepared and used to express rhLTA4H essentially as follows: LTA4 hydrolase encoding DNA was amplified by polymerase chain reaction (PCR) using a human placental cDNA library as a template. […] The amplified 1.9 kb DNA fragment encoding LTA4 hydrolase was isolated and cloned into the pFastBac1 vector (Invitrogen). Recombinant baculovirus was generated as described by the manufacturer, and used to infect Spodoptera frugiperda (Sf-9) cells. […] The purified enzyme solution was adjusted to contain 0.29 mg/mL LTA4 hydrolase, 50 mM Tris (pH 8.0), 150 mM NaCl, 5 mM dithiothreitol, 50% glycerol, and EDTA-free Complete protease inhibitor cocktail (Roche).
LTA4 substrate was prepared from the methyl ester of LTA4 (Cayman Chemical) by treatment with 67 equiv of NaOH under nitrogen at rt for 40 min. The LTA4 substrate in its free acid form was kept frozen at −80° C. until needed. Each compound was diluted to different concentrations in assay buffer (from Assay Designs) containing 10% DMSO. A 25-μL aliquot of each compound dilution was incubated for 10 min at rt with an equal volume of assay buffer containing 10 ng of recombinant human LTA4H. The solution was then adjusted to 200 μL with assay buffer. […] Each reaction was carried out at rt for 30 min. The reaction was stopped by diluting 10 μL of the reaction mixture with 200 μL of assay buffer. LTB4 was quantified in the diluted sample by a commercially available enzyme-linked immunoassay (Cayman Chemical Co.), as recommended by the manufacturer. Positive controls, under essentially identical conditions but without addition of an inhibitor compound, and negative controls, containing all assay components except enzyme, were routinely run in each experiment. IC50 values were determined by nonlinear regression of the activity data at different compound concentrations using Graphpad Prism 4.0, one site binding competition.
The values presented here are the result of a single determination or an average of two or more determinations, as indicated in parentheses following each value. For compounds tested three or more times, the average value is followed by the standard deviation

`CCCN(Cc1ccc(Oc2nc3cnccc3s2)cc1)CC1CC1` [Example 186, N-(Cyclopropylmethyl)-N-{[4-([1,3]thiazolo[4,5-c]pyridin-2-yloxy)phenyl]methyl}propan-1-amine]: the IC50 came out at 263 nM.

For `CCOC(=O)CN(Cc1ccccc1)Cc1ccc(Oc2nc3ncccc3s2)cc1` [Example 273, Ethyl N-benzyl-N-[4-([1,3]thiazolo[4,5-b]pyridin-2-yloxy)benzyl]glycinate], the IC50 was determined as 176 nM. On to `NC(=O)N1[C@@H]2CC[C@H]1CN(Cc1ccc(Oc3nc4ncccc4s3)cc1)C2` [Example 171, meso-3-{[4-([1,3]Thiazolo[4,5-b]pyridin-2-yloxy)phenyl]methyl}-3,8-diazabicyclo[3.2.1]octane-8-carboxamide], for which the IC50 was 42 nM.

Take `Cc1ccnc2nc(Oc3ccc(CN4CCC(NC(=O)c5ccncc5)CC4)cc3)sc12` [Example 206, N-(1-{4-[(7-Methyl[1,3]thiazolo[4,5-b]pyridin-2-yl)oxy]benzyl}piperidin-4-yl)pyridine-4-carboxamide]: the IC50 is 35 nM.

Consider `CS(=O)(=O)N1C[C@H]2C[C@@H]1CN2CCOc1ccc(Oc2nc3ccncc3s2)cc1` [Example 151, 2-(4-{2-[(1R,4R)-5-(Methylsulfonyl)-2,5-diazabicyclo[2.2.1]hept-2-yl]ethoxy}phenoxy)[1,3]thiazolo[5,4-c]pyridine], for which the IC50 turned out to be 367 nM.

In the case of `CCN(CCc1ccc(Oc2nc3cccnc3s2)cc1)C1CC1` [Example 174, N-Ethyl-N-{2-[4-([1,3]thiazolo[5,4-b]pyridin-2-yloxy)phenyl]ethyl}cyclopropanamine], the IC50 stood at 94 nM. Take `Clc1ccc(SC2CCN(CCOc3ccc(Oc4nc5ncccc5s4)cc3)CC2)cc1` [Example 136, 2-[4-(2-{4-[(4-Chlorophenyl)sulfanyl]piperidin-1-yl}ethoxy)phenoxy][1,3]thiazolo[4,5-b]pyridine]: the IC50 was 427 nM. For the compound `Cc1cnc2nc(Oc3ccc(CN4CCC(C(=O)N(C)C)CC4)cc3)sc2c1` [Example 172, N,N-Dimethyl-1-({4-[(6-methyl[1,3]thiazolo[4,5-b]pyridin-2-yl)oxy]phenyl}methyl)piperidine-4-carboxamide], the IC50 is 26 nM. Turning to `CC(=O)N(C)[C@@H]1C[C@H]2CC[C@@H](C1)N2Cc1ccc(Oc2nc3cccnc3s2)cc1` [Example 228, meso-N-Methyl-N-{(3-exo)-8-[4-([1,3]thiazolo[5,4-b]pyridin-2-yloxy)benzyl]-8-azabicyclo[3.2.1]oct-3-yl}acetamide], the half-inhibitory concentration (IC50) came out at 135 nM. Consider `NC(=O)N1[C@@H]2CC[C@H]1C[C@H](NCc1ccc(Oc3nc4cccnc4s3)cc1)C2` [Example 201, meso-(3-exo)-3-{[4-([1,3]Thiazolo[5,4-b]pyridin-2-yloxy)benzyl]amino}-8-azabicyclo[3.2.1]octane-8-carboxamide], for which the IC50 was 891 nM. Regarding `O=C(O)CCN1CCN(CCc2ccc(Oc3nc4ncccc4s3)cc2)CC1` [Example 225, 3-(4-{2-[4-([1,3]Thiazolo[4,5-b]pyridin-2-yloxy)phenyl]ethyl}piperazin-1-yl)propanoic acid hydrochloride], the IC50 stood at 21 nM. Regarding `CC(=O)N1C[C@@H]2C[C@H]1CN2Cc1ccc(Oc2nc3ccc(C)nc3s2)cc1` [Example 118, 2-(4-{[(1S,4S)-5-Acetyl-2,5-diazabicyclo[2.2.1]hept-2-yl]methyl}phenoxy)-5-methyl[1,3]thiazolo[5,4-b]pyridine], the IC50 is 3740 nM. In the case of `NCCCN(Cc1ccc(Oc2nc3ccncc3s2)cc1)CC1CC1` [Example 204, N-(Cyclopropylmethyl)-N-[4-([1,3]thiazolo[5,4-c]pyridin-2-yloxy)benzyl]propane-1,3-diamine hydrochloride], the half-inhibitory concentration (IC50) amounted to 576 nM. In the case of `O=C1CCCN1C1CCN(CCOc2ccc(Oc3nc4cccnc4s3)cc2)CC1` [Example 43, 1-(1-{2-[4-([1,3]Thiazolo[5,4-b]pyridin-2-yloxy)phenoxy]ethyl}piperidin-4-yl)pyrrolidin-2-one] it was 140 nM.

Source of the values: patent publication US20110190503A1, “Thiazolopyridin-2-yloxy-phenyl and thiazolopyrazin-2-yloxy-phenyl amines as modulators of leukotriene A4 hydrolase” (Janssen Pharmaceutical NV, priority 2008, published 2011).
